Test results as given in patent publication US10314883B2, “Compositions and methods for regulating blood pressure” (University of Virginia Patent Foundation, priority 2015, dated 2019).
Where two headings read alike, the source gives them in different places.

Tested on: thoracodorsal arteries (TDA)
Assay: tissue or blood
Conditions: Mus musculus

EC50 (read-out: EC50 of agonist for TDA constriction, TDAs from Cre^+/Panx1^FL mice, tamoxifen-injected (SMC Panx1 knockout)): 7840 ± 5600 nM
EC50 (read-out: EC50 of agonist for TDA constriction, TDAs from Cre^+/Panx1^WT mice, tamoxifen-injected): 1790 ± 1130 nM
EC50 (read-out: EC50 of agonist for TDA constriction, TDAs from Cre^−/Panx1^FL mice, tamoxifen-injected): 640 ± 370 nM
EC50 (read-out: EC50 of agonist for TDA constriction, TDAs from Cre^−/Panx1^WT mice, tamoxifen-injected): 660 ± 130 nM
SMILES: CNC[C@H](O)c1cccc(O)c1 [Phenylephrine, phenylephrine]
